We go through two compounds from paper PMC3831368 (Bioorganic & medicinal chemistry, 2013).

The target in test [1] is T1, MOR (Mus musculus, UniProt P42866). To be noted: in vitro radioligand competition binding; cited from earlier work.
Test [2] addresses T1, MOR. To be noted: cited from earlier work.
The next test deals with morphine antinociception. To be noted: cited from earlier work.
A further test addresses W318A MOR (Mus musculus, UniProt P42866, W318A). The experiment in a line: Competition binding to site-directed mutated MOR W318A. Conditions: read-out: W318A MOR IC50; ± SEM; transient CHO cells.

Each structure is given as a SMILES string. Bounds are passed on as bounds.

T1 sequence (P42866 whole entry): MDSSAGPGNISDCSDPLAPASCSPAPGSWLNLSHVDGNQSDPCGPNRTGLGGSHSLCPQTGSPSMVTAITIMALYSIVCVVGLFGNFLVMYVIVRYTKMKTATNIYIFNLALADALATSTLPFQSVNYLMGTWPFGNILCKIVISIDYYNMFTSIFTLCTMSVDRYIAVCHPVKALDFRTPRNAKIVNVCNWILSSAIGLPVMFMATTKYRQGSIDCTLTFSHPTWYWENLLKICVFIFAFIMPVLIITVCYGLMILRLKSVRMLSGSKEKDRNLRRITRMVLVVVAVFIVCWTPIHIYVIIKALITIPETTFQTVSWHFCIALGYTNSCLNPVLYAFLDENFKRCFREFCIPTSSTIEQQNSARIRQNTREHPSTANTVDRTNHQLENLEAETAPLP
W318A MOR, sequence (P42866 whole entry W318A): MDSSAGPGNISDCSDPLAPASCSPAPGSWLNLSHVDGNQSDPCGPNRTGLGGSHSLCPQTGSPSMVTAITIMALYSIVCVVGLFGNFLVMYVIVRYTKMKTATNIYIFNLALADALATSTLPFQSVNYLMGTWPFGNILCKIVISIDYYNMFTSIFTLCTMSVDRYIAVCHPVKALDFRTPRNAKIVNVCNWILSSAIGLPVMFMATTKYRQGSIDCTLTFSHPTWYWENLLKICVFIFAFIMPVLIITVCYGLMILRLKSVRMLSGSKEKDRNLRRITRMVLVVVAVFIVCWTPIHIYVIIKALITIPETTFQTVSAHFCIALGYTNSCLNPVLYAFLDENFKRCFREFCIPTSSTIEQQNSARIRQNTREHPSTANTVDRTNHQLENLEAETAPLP

As for `O=C(N[C@@H]1CC[C@@]2(O)[C@H]3Cc4ccc(O)c5c4[C@@]2(CCN3CC2CC2)[C@H]1O5)c1ccncc1` [NAP], the “affinity for the MOR” value on MOR [1] is “sub-nanomolar”. Besides, the “agonism in the in vitro GTPγS assay” value at MOR [2] was “marginal partial agonism”. Also, in the test on morphine antinociception, the “antagonism in in vivo antinociceptive test against morphine” value was “potent antagonism”.
With `O=C(N[C@H]1CC[C@@]2(O)[C@H]3Cc4ccc(O)c5c4[C@@]2(CCN3CC2CC2)[C@H]1O5)c1cc2ccccc2cn1` [NAQ], the IC50 on W318A MOR is > 1000 nM. Moreover, the “affinity for the MOR” value at MOR [1] is “sub-nanomolar”. The “agonism in the in vitro GTPγS assay” value at MOR [2] is on record as “marginal partial agonism”. In addition, the “antagonism in in vivo antinociceptive test against morphine” value with morphine antinociception is given as “potent antagonism”.
